Assay results published in ChEMBL document CHEMBL1201862, “PubChem BioAssay data set” (2004).
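Following 48 hours of exposure in 96-well plates, responses at five concentrations were used to interpolate endpoints linearly. GI50: concentration for 50% inhibition of growth.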 Calls of active or inactive are those of the source. Rule as the data show it: active = GI50 up to about 1.1 µM and inactive = higher.

Experiments:
Test in all cases: DTP human tumour cell line panel, 48 h
IGROV-1 = test system: IGROV-1
M14 = test system: M14
CCRF-CEM = test system: CCRF-CEM
OVCAR-5 = test system: OVCAR-5
LOX IMVI = test system: LOX IMVI
K562 = test system: K562
COLO 205 = test system: COLO 205
SF-268 = test system: SF-268
786-0 = test system: 786-0
SW-620 = test system: SW-620
MDA-MB-435 = test system: MDA-MB-435
A549 = test system: A549
SNB-19 = test system: SNB-19
MDA-N = test system: MDA-N
ACHN = test system: ACHN
U-251 = test system: U-251
OVCAR-3 = test system: OVCAR-3
OVCAR-4 = test system: OVCAR-4
RXF 393 = test system: RXF 393
MDA-MB-231 = test system: MDA-MB-231
UACC-62 = test system: UACC-62
HT-29 = test system: HT-29
BT-549 = test system: BT-549
CAKI-1 = test system: CAKI-1
DU-145 = test system: DU-145
SF-539 = test system: SF-539
RPMI-8226 = test system: RPMI-8226
A498 = test system: A498
HOP-62 = test system: HOP-62
TK-10 = test system: TK-10
SNB-75 = test system: SNB-75
UACC-257 = test system: UACC-257
UO-31 = test system: UO-31
SK-MEL-2 = test system: SK-MEL-2
HCT-116 = test system: HCT-116
HCC 2998 = test system: HCC 2998
PC-3 = test system: PC-3
SF-295 = test system: SF-295
KM12 = test system: KM12
NCI/ADR-RES = test system: NCI/ADR-RES
MOLT-4 = test system: MOLT-4
Malme-3M = test system: Malme-3M
EKVX = test system: EKVX
NCI-H226 = test system: NCI-H226
SK-MEL-5 = test system: SK-MEL-5
NCI-H460 = test system: NCI-H460
SK-MEL-28 = test system: SK-MEL-28
NCI-H23 = test system: NCI-H23
MCF7 = test system: MCF7
HOP-92 = test system: HOP-92
NCI-H522 = test system: NCI-H522
T47D = test system: T47D
HCT-15 = test system: HCT-15
SK-OV-3 = test system: SK-OV-3
HL-60 = test system: HL-60
SR = test system: SR
SN12C = test system: SN12C
OVCAR-8 = test system: OVCAR-8

## CSc1cnc2ccccc2c1SC1CN(Cc2ccccc2)c2ccccc2C1=O (stereo unspecified)
IGROV-1
  GI50: > 100 µM (inactive)
M14
  GI50: > 100 µM (inactive)
CCRF-CEM
  GI50: > 100 µM (inactive)
OVCAR-5
  GI50: > 100 µM (inactive)
LOX IMVI
  GI50: > 100 µM (inactive)
K562
  GI50: > 100 µM (inactive)
COLO 205
  GI50: > 100 µM (inactive)
SF-268
  GI50: 54.8 µM (inactive)
786-0
  GI50: > 100 µM (inactive)
SW-620
  GI50: > 100 µM (inactive)
MDA-MB-435
  GI50: > 100 µM (inactive)
A549
  GI50: > 100 µM (inactive)
SNB-19
  GI50: > 100 µM (inactive)
MDA-N
  GI50: > 100 µM (inactive)
ACHN
  GI50: > 100 µM (inactive)
U-251
  GI50: > 100 µM (inactive)
OVCAR-3
  GI50: > 100 µM (inactive)
OVCAR-4
  GI50: > 100 µM (inactive)
RXF 393
  GI50: > 100 µM (inactive)
MDA-MB-231
  GI50: > 100 µM (inactive)
UACC-62
  GI50: > 100 µM (inactive)
HT-29
  GI50: 47.9 µM (inactive)
BT-549
  GI50: > 100 µM (inactive)
CAKI-1
  GI50: > 100 µM (inactive)
DU-145
  GI50: > 100 µM (inactive)
SF-539
  GI50: > 100 µM (inactive)
RPMI-8226
  GI50: > 100 µM (inactive)
A498
  GI50: > 100 µM (inactive)
HOP-62
  GI50: 32.1 µM (inactive)
TK-10
  GI50: > 100 µM (inactive)
SNB-75
  GI50: 83.4 µM (inactive)
UACC-257
  GI50: > 100 µM (inactive)
UO-31
  GI50: > 100 µM (inactive)
SK-MEL-2
  GI50: > 100 µM (inactive)
HCT-116
  GI50: > 100 µM (inactive)
HCC 2998
  GI50: > 100 µM (inactive)
PC-3
  GI50: > 100 µM (inactive)
SF-295
  GI50: > 100 µM (inactive)
KM12
  GI50: > 100 µM (inactive)
NCI/ADR-RES
  GI50: > 100 µM (inactive)
MOLT-4
  GI50: > 100 µM (inactive)
Malme-3M
  GI50: > 100 µM (inactive)
EKVX
  GI50: > 100 µM (inactive)
NCI-H226
  GI50: > 100 µM (inactive)
SK-MEL-5
  GI50: > 100 µM (inactive)
NCI-H460
  GI50: > 100 µM (inactive)
SK-MEL-28
  GI50: > 100 µM (inactive)
NCI-H23
  GI50: > 100 µM (inactive)
MCF7
  GI50: > 100 µM (inactive)
HOP-92
  GI50: > 100 µM (inactive)
NCI-H522
  GI50: > 100 µM (inactive)
T47D
  GI50: > 100 µM (inactive)
HCT-15
  GI50: > 100 µM
SK-OV-3
  GI50: > 100 µM (inactive)
HL-60
  GI50: 35 µM (inactive)
SR
  GI50: > 100 µM (inactive)
SN12C
  GI50: > 100 µM (inactive)

## Cc1ccc([S+]([O-])/C=C(\NC(=O)OCc2ccccc2)C(F)(F)F)cc1 (stereo unspecified)
IGROV-1
  GI50: 45.3 µM (inactive)
M14
  GI50: > 100 µM (inactive)
CCRF-CEM
  GI50: 31.6 µM (inactive)
OVCAR-5
  GI50: 52 µM (inactive)
LOX IMVI
  GI50: 32.1 µM (inactive)
K562
  GI50: 28.1 µM (inactive)
COLO 205
  GI50: 58.6 µM (inactive)
786-0
  GI50: 53.3 µM (inactive)
SW-620
  GI50: 19.3 µM (inactive)
MDA-MB-435
  GI50: 22.4 µM (inactive)
A549
  GI50: 41 µM (inactive)
OVCAR-8
  GI50: 36.9 µM (inactive)
SNB-19
  GI50: 29.3 µM (inactive)
MDA-N
  GI50: 38.6 µM (inactive)
ACHN
  GI50: 17.8 µM (inactive)
U-251
  GI50: 18.6 µM (inactive)
OVCAR-3
  GI50: 43.6 µM (inactive)
OVCAR-4
  GI50: 67.5 µM (inactive)
RXF 393
  GI50: 35.5 µM (inactive)
MDA-MB-231
  GI50: 55.2 µM (inactive)
UACC-62
  GI50: 35.2 µM (inactive)
HT-29
  GI50: 32.1 µM (inactive)
BT-549
  GI50: > 100 µM (inactive)
CAKI-1
  GI50: 42 µM (inactive)
DU-145
  GI50: 77.3 µM (inactive)
SF-539
  GI50: 26.7 µM (inactive)
TK-10
  GI50: 80.2 µM (inactive)
SNB-75
  GI50: 18.8 µM (inactive)
UACC-257
  GI50: 78 µM (inactive)
UO-31
  GI50: 21.9 µM (inactive)
SK-MEL-2
  GI50: 32.4 µM (inactive)
HCT-116
  GI50: 45.7 µM (inactive)
HCC 2998
  GI50: 37.5 µM (inactive)
PC-3
  GI50: 50.4 µM (inactive)
SF-295
  GI50: 39.8 µM (inactive)
KM12
  GI50: 32.9 µM (inactive)
NCI/ADR-RES
  GI50: 33.1 µM (inactive)
MOLT-4
  GI50: 25.2 µM (inactive)
Malme-3M
  GI50: 35.2 µM (inactive)
EKVX
  GI50: 46.6 µM (inactive)
NCI-H226
  GI50: 34.4 µM (inactive)
SK-MEL-5
  GI50: 60.4 µM (inactive)
NCI-H460
  GI50: 41.4 µM (inactive)
SK-MEL-28
  GI50: 22.1 µM (inactive)
NCI-H23
  GI50: 33.4 µM (inactive)
MCF7
  GI50: 32.2 µM (inactive)
HOP-92
  GI50: 55.8 µM (inactive)
NCI-H522
  GI50: 29.8 µM (inactive)
T47D
  GI50: 39.7 µM (inactive)
HCT-15
  GI50: 33.4 µM
SK-OV-3
  GI50: > 100 µM (inactive)
HL-60
  GI50: 18 µM (inactive)
SR
  GI50: 30.4 µM (inactive)
SN12C
  GI50: 45.4 µM (inactive)
